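Briefly, cells in 96-well plates were exposed to five compound concentrations for 48 h, and endpoints were estimated by linear interpolation. Abbreviation: GI50, concentration required for 50% inhibition of growth.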 Active and inactive are the calls of the source. No stated cut-off is given here; in the data, active = GI50 up to about 1.1 µM and inactive = higher.
Legend:
Experiment in all cases: NCI tumour cell line growth inhibition, 48 h
[1] = tested on: A549
[2] = tested on: UACC-62
[3] = tested on: MDA-MB-435
[4] = tested on: T47D
[5] = tested on: DU-145
[6] = tested on: OVCAR-8
[7] = tested on: SF-295
[8] = tested on: LOX IMVI
[9] = tested on: NCI-H460
[10] = tested on: HOP-62
[11] = tested on: SF-268
[12] = tested on: SK-MEL-28
[13] = tested on: HCT-116
[14] = tested on: ACHN
[15] = tested on: A498
[16] = tested on: SK-MEL-5
[17] = tested on: MDA-MB-231
[18] = tested on: OVCAR-4
[19] = tested on: HT-29
[20] = tested on: Malme-3M

Measured: GI50

Cc1c(C(=O)OCc2ccccc2)[n+]([O-])c2ccccc2[n+]1[O-]
inactive: [1] 22.2 µM | [2] 25.6 µM | [3] 26.4 µM | [4] 13.4 µM | [5] 19.9 µM | [6] 48.6 µM | [7] 32.7 µM | [8] 20 µM | [9] 25.4 µM | [10] 22.3 µM | [11] 34.7 µM | [12] 66.1 µM | [13] 25.1 µM | [14] 74.3 µM | [15] 36.1 µM | [16] 22 µM | [17] 20.8 µM | [18] 20.8 µM | [19] 60.8 µM

Clc1cc(Cl)cc(/N=C/C=C/Nc2cc(Cl)cc(Cl)c2)c1
inactive: [1] 18.3 µM | [2] 19.7 µM | [3] 18.6 µM | [4] 22.9 µM | [5] 21 µM | [20] 30.5 µM | [6] 20.4 µM | [7] 23 µM | [9] 19.1 µM | [10] 23.7 µM | [11] 18.9 µM | [12] 25.3 µM | [13] 15.5 µM | [14] 20.1 µM | [15] 21 µM | [16] 15.1 µM | [17] 14.2 µM | [18] 14.6 µM | [19] 14.7 µM

CN(C)C(=O)C(F)(F)C(c1ccccc1)C1C(=O)N(C)C(=O)N(C)C1=O (stereo not drawn)
inactive: [1] > 100 µM | [2] > 100 µM | [3] > 100 µM | [4] > 100 µM | [5] > 100 µM | [6] > 100 µM | [7] > 100 µM | [8] > 100 µM | [9] > 100 µM | [10] > 100 µM | [11] > 100 µM | [12] > 100 µM | [13] > 100 µM | [14] > 100 µM | [15] > 100 µM | [16] > 100 µM | [17] > 100 µM | [18] > 100 µM

CN1C(=O)C2(C=CC(O)CC2)c2ccccc21 (stereo not drawn)
inactive: [1] > 100 µM | [2] > 100 µM | [3] > 100 µM | [4] > 100 µM | [5] > 100 µM | [6] > 100 µM | [7] > 100 µM | [8] > 100 µM | [9] > 100 µM | [10] > 100 µM | [11] > 100 µM | [12] > 100 µM | [13] > 100 µM | [14] > 100 µM | [15] > 100 µM | [16] > 100 µM | [17] > 100 µM | [18] > 100 µM | [19] > 100 µM

O=C1CC(Cc2n[nH]c3c2CCCC3)CC(=O)N1
inactive: [1] > 100 µM | [2] > 100 µM | [3] > 100 µM | [4] > 100 µM | [5] > 100 µM | [20] > 100 µM | [6] > 100 µM | [7] > 100 µM | [8] > 100 µM | [10] > 100 µM | [11] > 100 µM | [12] > 100 µM | [13] > 100 µM | [15] > 100 µM | [16] > 100 µM | [17] > 100 µM | [18] > 100 µM | [19] > 100 µM

Nn1c(Nc2ccc(S(=O)(=O)Nc3ncccn3)cc2)nnc(/C=C/c2c(O)ccc3ccccc23)c1=O
inactive: [1] 46 µM | [2] 20.5 µM | [3] 25.2 µM | [4] 23.8 µM | [5] 33.5 µM | [20] 30.8 µM | [6] 34.6 µM | [8] 30.3 µM | [9] 23.3 µM | [10] 33.6 µM | [11] 31.6 µM | [13] 21.1 µM | [14] 25.8 µM | [15] 25.2 µM | [17] 21.8 µM | [18] 24.5 µM | [19] 33.9 µM

CCCCCCCCCCCCCC1=C(O)C(=O)C(CC2=C(O)C(=O)C(CCCCCCCCCCCCC)=C(O)C2=O)=C(O)C1=O
inactive: [1] > 100 µM | [2] > 100 µM | [3] > 10 µM | [4] > 100 µM | [5] > 100 µM | [20] > 100 µM | [6] > 100 µM | [7] 52 µM | [8] > 100 µM | [11] 46.3 µM | [12] > 100 µM | [13] > 100 µM | [14] 30.8 µM | [15] 90.4 µM | [16] > 100 µM | [17] 51.9 µM | [19] > 100 µM

CCc1cc2c(c3c1CCCC3=O)CC1(C2)Cc2cc(CC)c3c(c2C1)C(=O)CCC3
inactive: [1] > 100 µM | [3] 47.2 µM | [4] > 100 µM | [5] > 100 µM | [20] 25.3 µM | [6] > 100 µM | [7] > 100 µM | [8] > 100 µM | [9] 93.8 µM | [10] > 100 µM | [11] > 100 µM | [12] > 100 µM | [13] 61.1 µM | [14] 66.4 µM | [15] > 100 µM | [16] 54.3 µM | [17] 36.5 µM | [18] 73.6 µM | [19] 76.2 µM

O=C(CCC(C(=O)OCc1ccccc1)C(=O)OCc1ccccc1)Nc1ccc(OCc2ccccc2)cc1
inactive: [1] 35.9 µM | [2] > 100 µM | [3] 67.8 µM | [4] 91.6 µM | [5] > 100 µM | [20] > 100 µM | [6] 14.7 µM | [7] > 100 µM | [8] > 100 µM | [9] 59.4 µM | [10] > 100 µM | [11] > 100 µM | [12] > 100 µM | [13] 14.3 µM | [14] > 100 µM | [15] 21 µM | [17] 22.6 µM | [18] 47.1 µM | [19] > 100 µM

C[N+](C)(N)Cc1nc(-c2ccc(Cl)cc2)no1
inactive: [1] > 100 µM | [2] > 100 µM | [3] > 100 µM | [4] 22.9 µM | [5] > 100 µM | [20] > 100 µM | [6] > 100 µM | [7] > 100 µM | [8] > 100 µM | [9] > 100 µM | [10] 88.9 µM | [12] > 100 µM | [13] > 100 µM | [14] > 100 µM | [15] 70 µM | [16] 75.3 µM | [17] > 100 µM | [18] > 100 µM | [19] > 100 µM

Cc1noc(-c2ccc(C(=O)O)[nH]2)c1Br
inactive: [1] 45.2 µM | [2] 64.6 µM | [3] > 100 µM | [4] 17.3 µM | [5] 37.9 µM | [20] 69.8 µM | [6] 15.8 µM | [7] 28.1 µM | [9] > 100 µM | [10] 22.5 µM | [11] 46.1 µM | [12] > 100 µM | [13] 45.6 µM | [14] 38.3 µM | [15] > 100 µM | [16] > 100 µM | [17] > 100 µM | [18] 31.8 µM | [19] > 100 µM

CCN(CC)C(=S)SC(C(=O)Nc1nnc(-c2ccccc2)o1)c1ccccc1 (stereo not drawn)
inactive: [1] 15.3 µM | [3] 17.1 µM | [4] 23.7 µM | [5] 17.9 µM | [20] 20.4 µM | [6] 28.8 µM | [7] 15.6 µM | [8] 4.23 µM | [9] 9.1 µM | [10] 20.9 µM | [12] 17.9 µM | [13] 16 µM | [14] 17.4 µM | [15] 18.2 µM | [16] 14.6 µM | [17] 34.1 µM | [18] 25.9 µM | [19] 17.9 µM

CCCCCCCCCCCCCCCCCCOCC(CO[PH](=O)O)OCCCCCCCCCCCCCCCCCC (stereo not drawn)
inactive: [1] > 50 µM | [3] > 50 µM | [4] > 50 µM | [5] > 50 µM | [6] > 50 µM | [8] > 50 µM | [9] > 50 µM | [11] > 50 µM | [12] > 50 µM | [13] > 50 µM | [15] > 50 µM | [16] > 50 µM | [17] > 50 µM | [18] > 50 µM | [19] > 50 µM

COC(=O)c1cccc(C)c1C1CN=NC12Cc1cc(C)cc(C)c1C2=O (stereo not drawn)
inactive: [1] 33.5 µM | [3] 30.1 µM | [4] 23.2 µM | [5] 41.3 µM | [20] 32.2 µM | [6] 44.8 µM | [8] > 100 µM | [9] 30.8 µM | [10] 53 µM | [11] 39.8 µM | [12] 60.4 µM | [13] 22.8 µM | [14] 28.8 µM | [15] 51.5 µM | [16] 31.6 µM | [17] 30.1 µM | [18] 51.1 µM | [19] 24.7 µM

COC(=O)NC(Nc1ccc(Cl)cc1Cl)(C(F)(F)F)C(F)(F)F
inactive: [1] 38.4 µM | [2] 5.2 µM | [3] 25.1 µM | [4] 47 µM | [5] 35.3 µM | [20] > 100 µM | [6] 70.8 µM | [7] > 100 µM | [8] 40.6 µM | [9] 30 µM | [10] > 100 µM | [11] 60.4 µM | [12] > 100 µM | [13] 64.7 µM | [14] 10.5 µM | [15] 33.2 µM | [16] 26.7 µM | [17] > 100 µM | [19] > 100 µM
